The values below come from PMC3925368 (Bioorganic & medicinal chemistry letters, 2013).

For data set [1] the following is noted: at micromolar concentrations; cited from earlier work.
The test system of another data set is T. brucei brucei. The conditions noted are these: ip doses as low as 3 × 1 mg/kg; cure = survival more than 30 days beyond controls; cited from earlier work.
Another data set deals with T. brucei rhodesiense. It counts as in vivo. The conditions noted are these: for Cures: cure = survival for more than 60 days after infection without a parasitemia relapse, cured/treated mice; for In vivo toxicity: 4×50 mg/kg ip in infected mice.
Data set [2] has as its system T. brucei rhodesiense STIB900. It counts as cell-based, Trypanosoma brucei rhodesiense. The conditions noted are these: STIB900 strain, in vitro.
Setting [3] is: 4×50 mg/kg ip on days 3–6 post-infection.

Each structure is given as a SMILES string.

For the compound `CS(=O)(=O)O.O=C(Nc1ccc(C2=NCCN2)cc1)c1ccc(C(=O)Nc2ccc(C3=NCCN3)cc2)cc1` [Compound 1, N,N'-Bis[4-(4,5-dihydro-1H-imidazol-2-yl)phenyl]terephthalamide dimesylate], the Mutagenicity entry in data set [1] is listed as “mutagenic”. Besides, the “Cure of T. brucei brucei-infected mice” value with T. brucei brucei is “completely cured”.
Turning to `CS(=O)(=O)O.O=C(Nc1ccc(C2=NCCN2)cc1)c1cccc(C(=O)Nc2ccc(C3=NCCN3)cc2)c1` [Compound 2, N,N'-Bis[4-(4,5-dihydro-1H-imidazol-2-yl)phenyl]isophthalamide dimesylate], in the data set with T. brucei rhodesiense (setting [3]), the Cures result is “completely curative”.
Take `CS(=O)(=O)O.O=C(Nc1ccc(C2=NCCN2)cc1)c1ccc(NC(=O)c2ccc(C3=NCCN3)cc2)cc1` [Compound 5, N-[4-(4,5-Dihydro-1H-imidazol-2-yl)phenyl]-4-[[4-(4,5-dihydro-1H-imidazol-2-yl)benzoyl]amino]benzamide dimesylate]: the In vivo toxicity entry with T. brucei rhodesiense was “no in vivo toxicity”.
Regarding `CS(=O)(=O)O.O=C(Nc1ccc(C2=NCCN2)cc1)c1ccc(-c2ccc(C(=O)Nc3ccc(C4=NCCN4)cc3)cc2)cc1` [Compound 8, N,N'-Bis[4-(4,5-dihydro-1H-imidazol-2-yl)phenyl]biphenyl-4,4’-dicarboxamide dimesylate], in the data set with T. brucei rhodesiense (setting [3]), the Cures entry is “ineffective”.
`CS(=O)(=O)O.O=C(Nc1ccc(C2=NCCN2)cc1)c1ccc(C2=NCCN2)cc1` [Compound 10, N-[4-(4,5-Dihydro-1H-imidazol-2-yl)phenyl]-4-(4,5-dihydro-1H-imidazol-2-yl)benzamide dimesylate]: in the data set with T. brucei rhodesiense, the In vivo toxicity result is “no in vivo toxicity”.
For the compound `O=C(Nc1ccc(C2=NCCN2)cc1)c1ccc(-c2cc3ccc(C4=NCCN4)cc3[nH]2)cc1` [Compound 11, 6-(4,5-Dihydro-1H-imidazol-2-yl)-2-[4-[[[4-(4,5-dihydro-1H-imidazol-2-yl)phenyl]amino]carbonyl]phenyl]indole], the “T. b. rhodesiense IC50” value in data set [2] was “single digit nM”.
As for `CS(=O)(=O)O.O=C(NCc1ccc(C2=NCCN2)cc1)c1ccc(-c2cc3ccc(C4=NCCN4)cc3[nH]2)cc1` [Compound 12, 6-(4,5-Dihydro-1H-imidazol-2-yl)-2-[4-[[[[4-(4,5-dihydro-1H-imidazol-2-yl)phenyl]methyl]amino]carbonyl]phenyl]indole dimesylate], the “T. b. rhodesiense IC50” value in data set [2] is “single digit nM”. For the same compound, the In vivo toxicity entry with T. brucei rhodesiense is “lethal”. Further, the Cures entry in the data set on T. brucei rhodesiense (setting [3]) is given as “ineffective”. The “Mean Survival Days” value in the data set on T. brucei rhodesiense (4×50 mg/kg ip on days 3–6 post-infection, mice with and without parasitemia relapse) is reported as “toxic ^d”.
